Measurements from patent publication US20240217978A1 (CHONG KUN DANG PHARMACEUTICAL CORP., priority 2021, published 2024).

Molecular target: human adenosine A2a receptor (Homo sapiens (Human), UniProt P29274)
Assay: A2a receptor binding affinity, [3H]-NECA radioligand binding test
Conditions: [3H]-NECA 37 nM; membrane from HEK-293 cells transfected with human adenosine A2a receptor
Procedure, shortened: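 IC50 values (μM) come from displacement of [3H]-NECA, used at 37 nM final, on human A2a receptor membranes from transfected HEK-293 cells. Incubation lasted one hour at room temperature in Tris/MgCl2/EDTA buffer, pH 7.4; filter-bound radioactivity was counted by scintillation.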

Sequence of human adenosine A2a receptor (P29274 whole entry): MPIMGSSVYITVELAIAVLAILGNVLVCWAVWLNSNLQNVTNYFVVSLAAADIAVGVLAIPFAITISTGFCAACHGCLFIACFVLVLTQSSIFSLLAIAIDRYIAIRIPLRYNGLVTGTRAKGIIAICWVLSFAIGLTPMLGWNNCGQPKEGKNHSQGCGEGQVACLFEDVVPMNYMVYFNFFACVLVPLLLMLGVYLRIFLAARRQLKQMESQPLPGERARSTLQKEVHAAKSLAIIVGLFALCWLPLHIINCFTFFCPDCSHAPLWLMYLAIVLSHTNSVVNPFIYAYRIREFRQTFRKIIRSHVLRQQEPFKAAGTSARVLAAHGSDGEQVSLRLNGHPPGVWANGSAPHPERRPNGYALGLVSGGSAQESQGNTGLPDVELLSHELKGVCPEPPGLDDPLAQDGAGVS

| IC50 [nM] | Compound |
| --- | --- |
| 15 | CC(C)(C(=O)N1CCN(C(=O)[C@@H]2CCCN2c2nc(N)n3nc(-c4ccco4)nc3n2)CC1)C(F)(F)F [Example 86, 1-(4-((7-amino-2-(furan-2-yl)-[1,2,4]triazolo[1,5-a][1,3,5]triazin-5-yl)-L-prolyl)piperazin-1-yl)-3,3,3-trifluoro-2,2-dimethylpropan-1-one] |
| 11 | Nc1nc(N2CCC[C@H]2C(=O)N2CCC(C(=O)Nc3ccccn3)CC2)nc2nc(-c3ccco3)nn12 [Example 79, 1-((7-amino-2-(furan-2-yl)-[1,2,4]triazolo[1,5-a][1,3,5]triazin-5-yl)-L-prolyl)-N-(pyridin-2-yl)piperidin-4-carboxamide] |
| 8 | Nc1nc(N2CCC[C@H]2C(=O)N2CCN(CCN3CCOCC3)CC2)nc2nc(-c3ccco3)nn12 [Example 53, 4-(2-(4-((7-amino-2-(furan-2-yl)-[1,2,4]triazolo[1,5-a][1,3,5]triazine-5-yl)-L-prolyl)piperazin-1-yl)ethyl)morpholine] |
| 3 | CC(C)(F)CN1CCN(C(=O)[C@@H](Nc2nc(N)n3nc(-c4ccco4)nc3n2)C2CCCCC2)CC1 [Example 147, (S)-2-((7-amino-2-(furan-2-yl)-[1,2,4]triazolo[1,5-a][1,3,5]triazin-5-yl)amino)-2-cyclohexyl-1-(4-(2-fluoro-2-methylpropyl)piperazin-1-yl)ethan-1-one] |
| 9 | CC(C)(O)CN1CCC(C2CCN(C(=O)[C@@H]3CCN3c3cc4nc(-c5ccco5)nn4c(N)n3)CC2)CC1 [Example 381, (S)-(1-(5-amino-2-(furan-2-yl)-[1,2,4]triazolo[1,5-c]pyrimidin-7-yl)azetidin-2-yl)(1′-(2-hydroxy-2-methylpropyl)-[4,4′-bipiperidin]-1-yl)methanone] |
| 3350 | Nc1nc(N2CCC[C@@H]2C(=O)N2CCN(c3ccc(F)cc3F)CC2)nc2nc(-c3ccco3)nn12 [Example 97, (R)-(1-(7-amino-2-(furan-2-yl)-[1,2,4]triazolo[1,5-a][1,3,5]triazin-5-yl)pyrrolidin-2-yl)(4-(2,4-difluorophenyl)piperazin-1-yl)methanone] |
| 12 | CC(C)C1CCC(N2CCN(C(=O)[C@@H]3CCCN3c3nc(N)n4nc(-c5ccco5)nc4n3)CC2)CC1 (stereo partly drawn) [Example 153, (S)-(1-(7-amino-2-(furan-2-yl)-[1,2,4]triazolo[1,5-a][1,3,5]triazin-5-yl)pyrrolidin-2-yl)(4-(4-isopropylcyclohexyl)piperazin-1-yl)methanone] |
| 12 | Nc1nc(N2CC[C@H]2C(=O)N2CCN(C(=O)Nc3ccccc3)CC2)nc2nc(-c3ccco3)nn12 [Example 110, (S)-4-(1-(7-amino-2-(furan-2-yl)-[1,2,4]triazolo[1,5-a][1,3,5]triazine-5-yl)azetidin-2-carbonyl)-N-phenylpiperazin-1-carboxamide] |
| 1 | Nc1nc(N[C@H](C(=O)N2CCN(c3ccc(F)cc3F)CC2)C2CCCC2)nc2nc(-c3ccco3)nn12 [Example 170, (S)-2-((7-amino-2-(furan-2-yl)-[1,2,4]triazolo[1,5-a][1,3,5]triazin-5-yl)amino)-2-cyclopentyl-1-(4-(2,4-difluorophenyl)piperazin-1-yl)ethan-1-one] |
| 1 | Nc1nc(N[C@@H](Cc2ccccc2)C(=O)N2CCC(COc3ccccc3)CC2)nc2nc(-c3ccco3)nn12 [Example 3, (S)-2-((7-amino-2-(furan-2-yl)-[1,2,4]triazolo[1,5-a][1,3,5]triazin-5-yl)amino)-1-(4-(phenoxymethyl)piperidin-1-yl)-3-phenylpropan-1-one] |
| 1 | CC1(C)C[C@@H](C(=O)N2CCN(CC(F)(F)F)CC2)N(c2nc(N)n3nc(-c4ccco4)nc3n2)C1 [Example 387, (S)-(1-(7-amino-2-(furan-2-yl)-[1,2,4]triazolo[1,5-a][1,3,5]triazin-5-yl)-4,4-dimethylpyrrolidin-2-yl)(4-(2,2,2-trifluoroethyl)piperazin-1-yl)methanone] |
